Laboratory results from patent publication US9480772B2, “Gel sheet containing lipid peptide gelator and polymeric compound” (NISSAN CHEMICAL INDUSTRIES, LTD., priority 2010, dated 2016).
Residues, ends and D or L forms follow the SMILES beside them. *: point of attachment. Palmitoyl = CCCCCCCCCCCCCCCC(=O)*

Assay: Gel state after standing overnight and affinity with water (Example 1)
Format: physicochemical
Design: key to Affinity with water by addition of milliQ water: a sample ascertained to have the affinity with water is evaluated as ∘; a sample ascertained to have no affinity with water is evaluated as x
Experimental: N-Palmitoyl-Gly-His synthesized above was dissolved in a 50 mM phosphate buffer solution (pH 7.5) so as to give a concentration of 1% (w/w) in a closed system at 100° C. To the solution, gum arable (Wako Pure Chemical Industries, Ltd.) was added dropwise so as to give a concentration of 10% (w/w) so as to form gel. From the formed gel, 200 μl of the gel was taken and dropped onto a glass petri dish. The gel was left overnight and then observed. To the gel after standing overnight, milliQ water was dropped, and the affinity with water was observed. Also, PVA (manufactured by Wako Pure Chemical Industries, Ltd., n=1,500 to 1,800) at a concentration of 10% (w/w) was added dropwise, in place of the gum arabic, so as to form gel. Then, the gel was subjected to the same procedure, and the gel after standing overnight was observed.
For comparison, gum arable alone or PVA alone was used without using N-palmitoyl-Gly-His and was dropped onto a glass petri dish in a similar manner. Then, each sample was left overnight and then observed in a similar manner.
From the observation results, a sample ascertained to have the affinity with water is evaluated as ∘, and a sample ascertained to have no affinity with water is evaluated as x.

Structure (SMILES): CCCCCCCCCCCCCCCC(=O)NCC(=O)N[C@@H](Cc1c[nH]cn1)C(=O)O [N-palmitoyl-Gly-His] (Palmitoyl-Gly-His-OH)
- Change in gel state after standing overnight (200 μl dropped onto a glass petri dish, left overnight): White gel
- Affinity with water by addition of milliQ water (gel after standing overnight, milliQ water dropped): ∘
